The record followed here is PMC3163471 (MedChemComm, 2011).

For the experiment, the system named is breast cancer cell lines. Kind of experiment: Antiproliferative activity, cell line not given. It is filed as cell-based, human. The note with it: text on structure-activity relationship, Tables 1 and 2.

Turning to “H-Arg-Pro-[3-amino-3(1-napthyl)-propionic acid]-Tyr-OH [Compound 13]”, the “Antiproliferative activity in words, compared with compound 5 or the parent” value is listed as “activity was lost”.

Regarding “H-Arg-[3-amino-3(1-napthyl)-propionic acid]-Asp-OH [Compound 7]”, the “Antiproliferative activity in words, compared with compound 5 or the parent” value is on record as “loss of activity”.

Turning to “H-Arg-[3-amino-3(1-napthyl)-propionic acid]-Tyr-OH [Compound 6]”, the “Antiproliferative activity in words, compared with compound 5 or the parent” value is “loss of activity”.

For the substance “H-Arg-[3-amino-3(biphenyl)-propionic acid]-Phe-OH [Compound 10]”, the “Antiproliferative activity in words, compared with compound 5 or the parent” value is “retained the activity and specificity”.

Consider “H-Lys-[3-amino-3(biphenyl)-propionic acid]-Phe-OH [Compound 11]”, for which the “Antiproliferative activity in words, compared with compound 5 or the parent” value is given as “loss of activity”.
